# According to patent US10766869B2, “Triazoles for the treatment of demyelinating dieases” (Vertex Pharmaceuticals Incorporated, priority 2015, dated 2020):
# Read-outs that look alike come from different tables or passages of the source.
# System: primary rat mixed cortical cells
# Experiment: In vitro myelination assay (MBP positive myelin strands, fold myelin pixels above background)
# Type: cell-based
# Settings: for fold induction at 1 µM / fold induction at 10 µM: Rattus norvegicus; for fold induction at 10 µM: 10.0 μM compound
# Summary of the method: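 P1 rat cortical cells (neurons, OPCs, oligodendrocytes, astrocytes, microglia) were cultured 14 days at 37 °C with compound, with half-medium changes containing 1× compound on days 6 and 10. Fixed cells were immunostained for MBP and imaged at 10×. Total MBP myelin pixels per well were expressed as fold above no-compound baseline at 1.0 μM and 10.0 μM.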
# [1] = 1.0 μM compound, relative to baseline of no added compound, read-out: Fold myelin pixels above background, 1.0 μM
# [2] = relative to baseline of no added compound, read-out: Fold myelin pixels above background, 10.0 μM
# [3] = 1.0 μM compound, read-out: Fold myelin pixels above background relative to baseline of no added compound
# [4] = read-out: Fold myelin pixels above background relative to baseline of no added compound
# [5] = 1.0 μM compound, relative to baseline of no added compound, read-out: Fold myelin pixels above background
# [6] = relative to baseline of no added compound, read-out: Fold myelin pixels above background
Compound,fold induction at 1 µM [1],fold induction at 10 µM [2],fold induction at 1 µM [3],fold induction at 10 µM [4],other results
"Cc1cc(Nc2ncn(-c3cccc(F)c3)n2)cc(N2CCN(C3(C)COC3)CC2)c1 [Compound 375, 1-(3-fluorophenyl)-N-[3-methyl-5-[4-(3-methyloxetan-3-yl)piperazin-1-yl]phenyl]-1,2,4-triazol-3-amine]",1000 to 10000,10 to 100,,,
"Cc1cc(Nc2ncn(-c3cc(F)cc(F)c3)n2)cc(N2CCN(CC(C)O)CC2)c1 (stereo not drawn) [Compound 995, 1-[4-[3-[[1-(3,5-difluorophenyl)-1,2,4-triazol-3-yl]amino]-5-methyl-phenyl]piperazin-1-yl]propan-2-ol]",,,10 to 100,≤ 1,
"Cc1cc(Nc2ncn(-c3cc(F)cc(F)c3)n2)cc(N2CCN(C3COC3)CC2=O)c1 [Compound 67, 1-[3-[[1-(3,5-difluorophenyl)-1,2,4-triazol-3-yl]amino]-5-methyl-phenyl]-4-(oxetan-3-yl)piperazin-2-one]",1 to 10,10 to 100,,,
"Cc1cc(Nc2ncn(-c3cc(F)cc(F)c3)n2)cc(C2CCN(C3COC3)CC2(F)F)c1 (stereo not drawn) [Compound 235, N-[3-[3,3-difluoro-1-(oxetan-3-yl)-4-piperidyl]-5-methyl-phenyl]-1-(3,5-difluorophenyl)-1,2,4-triazol-3-amine]",10 to 100,10 to 100,,,
"COc1cc(Nc2ncn(-c3cccc(C(F)F)c3)n2)nc(N2CCN(C3COC3)CC2)c1 [Compound 639, N-[1-[3-(difluoromethyl)phenyl]-1,2,4-triazol-3-yl]-4-methoxy-6-[4-(oxetan-3-yl)piperazin-1-yl]pyridin-2-amine]",,,,,fold induction at 1 µM [5]: 1 to 10; fold induction at 10 µM [6]: 1 to 10
"Cc1cc(Nc2ncn(-c3cc(F)cc(F)c3)n2)cc(N2CCN(CCCO)CC2)c1 [Compound 990, 3-[4-[3-[[1-(3,5-difluorophenyl)-1,2,4-triazol-3-yl]amino]-5-methyl-phenyl]piperazin-1-yl]propan-1-ol]",,,≤ 1,≤ 1,
"Cc1cc(Nc2ncn(-c3cc(F)cc(F)c3)n2)cc(C2(C)CN(C)C(=O)O2)c1 (stereo not drawn) [Compound 613, 5-[3-[[1-(3,5-difluorophenyl)-1,2,4-triazol-3-yl]amino]-5-methyl-phenyl]-3,5-dimethyl-oxazolidin-2-one]",,,,,fold induction at 1 µM [5]: 10 to 100; fold induction at 10 µM [6]: 1 to 10
"Cc1cc(Nc2ncn(-c3cnccn3)n2)cc(C2(C)CN(C)C(=O)O2)c1 (stereo not drawn) [Compound 846, 3,5-dimethyl-5-[3-methyl-5-[(1-pyrazin-2-yl-1,2,4-triazol-3-yl)amino]phenyl]oxazolidin-2-one]",,,10 to 100,1 to 10,
"Cc1cc(Nc2ncn(-c3ccccc3)n2)cc(C2(F)CCN(C3COC3)C2)c1 (stereo not drawn) [Compound 18, N-[3-[3-fluoro-1-(oxetan-3-yl)pyrrolidin-3-yl]-5-methyl-phenyl]-1-phenyl-1,2,4-triazol-3-amine]",1000 to 10000,1 to 10,,,
"Cc1cc(NCC2CN(C(CO)CO)C2)cc(Nc2ncn(-c3cc(F)cc(F)c3)n2)c1 [Compound 946, 2-[3-[[3-[[1-(3,5-difluorophenyl)-1,2,4-triazol-3-yl]amino]-5-methyl-anilino]methyl]azetidin-1-yl]propane-1,3-diol]",,,≤ 1,≤ 1,
"CCC1CN(c2cc(C)cc(Nc3ncn(-c4cc(F)cc(F)c4)n3)c2)CCN1CC(C)O (stereo not drawn) [Compound 1056, 1-[4-[3-[[1-(3,5-difluorophenyl)-1,2,4-triazol-3-yl]amino]-5-methyl-phenyl]-2-ethyl-piperazin-1-yl]propan-2-ol]",,,1 to 10,≤ 1,
"C1=C(c2cc(Nc3ncn(-c4ccccc4)n3)cc(N3CCOCC3)c2)COC1 [Compound 465, N-[3-(2,5-dihydrofuran-3-yl)-5-morpholino-phenyl]-1-phenyl-1,2,4-triazol-3-amine]",,,,,fold induction at 1 µM [5]: 100 to 1000; fold induction at 10 µM [6]: ≤ 1
"CN1CCN(c2cc(Nc3ncn(-c4cccc(F)c4)n3)cc(C(F)(F)F)c2)CC1 [Compound 257, 1-(3-fluorophenyl)-N-[3-(4-methylpiperazin-1-yl)-5-(trifluoromethyl)phenyl]-1,2,4-triazol-3-amine]",100 to 1000,≤ 1,,,
"Cc1cc(Nc2ncn(-c3ccccc3)n2)c(F)c(N2CCN(C3COC3)CC2)c1 [Compound 1085, N-[2-fluoro-5-methyl-3-[4-(oxetan-3-yl)piperazin-1-yl]phenyl]-1-phenyl-1,2,4-triazol-3-amine]",,,10 to 100,10 to 100,
"Cc1c(Nc2ncn(-c3ccccn3)n2)cc(N2CCN(C3COC3)CC2)cc1OC(C)C [Compound 862, N-[3-isopropoxy-2-methyl-5-[4-(oxetan-3-yl)piperazin-1-yl]phenyl]-1-(2-pyridyl)-1,2,4-triazol-3-amine]",,,1 to 10,10 to 100,
"Cc1cc(Nc2ncn(-c3ccccc3)n2)c(F)c(OC2CCOC2)c1 (single isomer, unassigned) [Compound 1002, N-(2-fluoro-5-methyl-3-tetrahydrofuran-3-yloxy-phenyl)-1-phenyl-1,2,4-triazol-3-amine]",,,,10 to 100,Fold myelin pixels above background relative to baseline of no added compound (1.0 μM compound): +++ (>100 to 1000x)
"CN1CCCN(c2cc(F)cc(Nc3ncn(-c4cccc(F)c4)n3)c2)CC1 [Compound 98, N-[3-fluoro-5-(4-methyl-1,4-diazepan-1-yl)phenyl]-1-(3-fluorophenyl)-1,2,4-triazol-3-amine]",10 to 100,≤ 1,,,
"CCN(C)Cc1cc(F)cc(-n2cnc(Nc3cc(C)cc(N4CCN(C5COC5)CC4)c3)n2)c1 [Compound 187, 1-[3-[[ethyl(methyl)amino]methyl]-5-fluoro-phenyl]-N-[3-methyl-5-[4-(oxetan-3-yl)piperazin-1-yl]phenyl]-1,2,4-triazol-3-amine]",100 to 1000,≤ 1,,,
"Fc1ccc(-n2cnc(Nc3cc(F)cc(N4CCCC4)c3)n2)cc1 [Compound 167, 1-(4-fluorophenyl)-N-(3-fluoro-5-pyrrolidin-1-yl-phenyl)-1,2,4-triazol-3-amine]",≤ 1,100 to 1000,,,
"Cc1cc(Nc2ncn(-c3cnccn3)n2)cc(N2CCN(C3CC3)CC2)c1 [Compound 20, N-[3-(4-cyclopropylpiperazin-1-yl)-5-methyl-phenyl]-1-pyrazin-2-yl-1,2,4-triazol-3-amine]",10 to 100,100 to 1000,,,
"Cc1cc(Nc2ncn(-c3cc(F)cc(F)c3)n2)cc(NC2CCCN(CCF)C2)c1 (stereo not drawn) [Compound 873, N3-[1-(3,5-difluorophenyl)-1,2,4-triazol-3-yl]-N1-[1-(2-fluoroethyl)-3-piperidyl]-5-methyl-benzene-1,3-diamine]",,,1 to 10,≤ 1,
"CCc1cc(F)cc(-n2cnc(Nc3cc(C)cc(N4CCN(C)CC4)c3)n2)c1 [Compound 255, 1-(3-ethyl-5-fluoro-phenyl)-N-[3-methyl-5-(4-methylpiperazin-1-yl)phenyl]-1,2,4-triazol-3-amine]",100 to 1000,100 to 1000,,,
"Cc1cc(Nc2ncn(-c3cc(F)cc(F)c3)n2)cc(N2CC(C3CCOC3)C2)c1 (stereo not drawn) [Compound 890, 1-(3,5-difluorophenyl)-N-[3-methyl-5-(3-tetrahydrofuran-3-ylazetidin-1-yl)phenyl]-1,2,4-triazol-3-amine]",,,1 to 10,10 to 100,
"Clc1cc(Nc2ncn(-c3ccccn3)n2)cc(N2CC(N3CCOCC3)C2)c1 [Compound 785, N-[3-chloro-5-(3-morpholinoazetidin-1-yl)phenyl]-1-(2-pyridyl)-1,2,4-triazol-3-amine]",,,,,fold induction at 1 µM [5]: 10 to 100; fold induction at 10 µM [6]: 100 to 1000
"Cc1cc(Nc2ncn(-c3cc(F)cc(F)c3)n2)cc(C2CN(C3COC3)C2)c1 [Compound 229, 1-(3,5-difluorophenyl)-N-[3-methyl-5-[1-(oxetan-3-yl)azetidin-3-yl]phenyl]-1,2,4-triazol-3-amine]",100 to 1000,100 to 1000,,,
"Cc1cc(Nc2ncn(-c3cc(F)cc(F)c3)n2)cc(N2CC(O)C2)c1 [Compound 355, 1-[3-[[1-(3,5-difluorophenyl)-1,2,4-triazol-3-yl]amino]-5-methyl-phenyl]azetidin-3-ol]",10 to 100,100 to 1000,,,
"Cc1cc(Nc2ncn(-c3cc(F)cc(F)c3)n2)cc(N2CC(N3CC4CC3CO4)C2)c1 (stereo not drawn) [Compound 788, 1-(3,5-difluorophenyl)-N-[3-methyl-5-[3-(2-oxa-5-azabicyclo[2.2.1]heptan-5-yl)azetidin-1-yl]phenyl]-1,2,4-triazol-3-amine]",,,10 to 100,1 to 10,
"Cc1cc(C#CC2CC2)cc(Nc2ncn(-c3cccc(F)c3)n2)c1 [Compound 769, N-[3-(2-cyclopropylethynyl)-5-methyl-phenyl]-1-(3-fluorophenyl)-1,2,4-triazol-3-amine]",,,,,fold induction at 1 µM [5]: 1 to 10; fold induction at 10 µM [6]: ≤ 1
"Cc1cc(Nc2ncn(-c3ccccc3)n2)cc(N2CCCC2)c1 [Compound 110, N-(3-methyl-5-pyrrolidin-1-yl-phenyl)-1-phenyl-1,2,4-triazol-3-amine]",100 to 1000,1 to 10,,,
"FC(F)c1cc(Nc2ncn(-c3ccccc3)n2)nc(N2CCN(C3COC3)CC2)c1 [Compound 526, 4-(difluoromethyl)-6-[4-(oxetan-3-yl)piperazin-1-yl]-N-(1-phenyl-1,2,4-triazol-3-yl)pyridin-2-amine]",,,,,fold induction at 1 µM [5]: 100 to 1000; fold induction at 10 µM [6]: 10 to 100
